Test results: ChEMBL document CHEMBL1201862, “PubChem BioAssay data set” (2004)
Values joined by “and” are separate entries in the source; they are usually repeats but may differ in a detail not shown here. Equal values may be shown once.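 48-hour exposure; five concentrations; linearly interpolated endpoints. Abbreviation: GI50, concentration required for 50% inhibition of growth.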 Active and inactive are the calls of the source. Cut-off read from the data, not from the text of the source: active = GI50 up to about 1.1 µM and inactive = higher.

Key:
Assay in all cases: NCI tumour cell line growth inhibition, 48 h
LOX IMVI = test system: LOX IMVI
UACC-62 = test system: UACC-62
ACHN = test system: ACHN
Malme-3M = test system: Malme-3M
K562 = test system: K562
HT-29 = test system: HT-29
HCT-15 = test system: HCT-15
OVCAR-5 = test system: OVCAR-5
SF-268 = test system: SF-268
OVCAR-8 = test system: OVCAR-8
DU-145 = test system: DU-145
Hs-578T = test system: Hs-578T
NCI-H522 = test system: NCI-H522
RPMI-8226 = test system: RPMI-8226
A498 = test system: A498
MDA-MB-231 = test system: MDA-MB-231
PC-3 = test system: PC-3
UACC-257 = test system: UACC-257
MCF7 = test system: MCF7
SNB-75 = test system: SNB-75

Row | SMILES | GI50 (LOX IMVI) | GI50 (UACC-62) | GI50 (ACHN) | GI50 (Malme-3M) | GI50 (K562) | GI50 (HT-29) | GI50 (HCT-15) [µM] | GI50 (OVCAR-5) | GI50 (SF-268) | GI50 (OVCAR-8) | GI50 (DU-145) | GI50 (Hs-578T) | GI50 (NCI-H522) | GI50 (RPMI-8226) | GI50 (A498) | GI50 (MDA-MB-231) | GI50 (PC-3) | GI50 (UACC-257) | GI50 (MCF7) | GI50 (SNB-75)
1 | CCCCOC(=O)NC(Nc1ccc(S(=O)(=O)Nc2ncccn2)cc1)(C(F)(F)F)C(F)(F)F | > 100 µM (inactive) | > 100 µM (inactive) | > 100 µM (inactive) | > 100 µM (inactive) | > 100 µM (inactive) | > 100 µM (inactive) | > 100 | > 100 µM (inactive) | > 100 µM (inactive) | > 100 µM (inactive) | > 100 µM (inactive) | > 100 µM (inactive) | > 100 µM (inactive) | 86.9 µM (inactive) | > 100 µM (inactive) | > 100 µM (inactive) | > 100 µM (inactive) | – | – | –
2 | Nc1nc(Cl)cc(NCC2(CO)CC=CC2)n1 | > 100 µM (inactive) | > 100 µM (inactive) | > 100 µM (inactive) | > 100 µM (inactive) | > 100 µM (inactive) | > 100 µM (inactive) | > 100 | > 100 µM (inactive) | > 100 µM (inactive) | 79.8 µM (inactive) | > 100 µM (inactive) | > 100 µM (inactive) | 68.7 µM (inactive) | – | – | > 100 µM (inactive) | > 100 µM (inactive) | > 100 µM (inactive) | > 100 µM (inactive) | > 100 µM (inactive)
3 | Cc1ccc(S(=O)(=O)SC/C=C\CSS(=O)(=O)c2ccc(C)cc2)cc1 | – | 17.6 µM (inactive) and 20.9 µM (inactive) | 29.6 µM (inactive) and 25.1 µM (inactive) | 34.7 µM (inactive) and 20.2 µM (inactive) | – | – | – | – | 26.3 µM (inactive) and 19.8 µM (inactive) | 18.9 µM (inactive) and 13.3 µM (inactive) | 16.4 µM (inactive) | 67 µM (inactive) | – | – | 57.1 µM (inactive) and 49.4 µM (inactive) | 16.4 µM (inactive) | 19.9 µM (inactive) | – | 3.51 µM (inactive) | 19.1 µM (inactive) and 36.6 µM (inactive)
4 | O=C(c1cccs1)N(C(=S)OC12CC3CC(CC(C3)C1)C2)c1ccccc1 | 22.5 µM (inactive) | 25.6 µM (inactive) | 33 µM (inactive) | 43.2 µM (inactive) | 26.8 µM (inactive) | 31.8 µM (inactive) | 29.8 | 29.4 µM (inactive) | 37.6 µM (inactive) | 31.8 µM (inactive) | 84.7 µM (inactive) | 32 µM (inactive) | 17.2 µM (inactive) | – | 33.2 µM (inactive) | 30 µM (inactive) | 22.8 µM (inactive) | 39.5 µM (inactive) | 30.7 µM (inactive) | 85.7 µM (inactive)
5 | COC(=O)Cn1cnc2c(Cl)nc(Nc3ccccc3)nc21 | 17.9 µM (inactive) | 22.6 µM (inactive) | > 100 µM (inactive) | 54.3 µM (inactive) | 10.6 µM (inactive) | > 100 µM (inactive) | 21.4 | – | > 10 µM (inactive) | 25.9 µM (inactive) | – | 20.9 µM (inactive) | – | > 100 µM (inactive) | > 100 µM (inactive) | 38 µM (inactive) | 20.7 µM (inactive) | 68.7 µM (inactive) | 76.2 µM (inactive) | > 100 µM (inactive)
6 | COC1=NC(NC2OCC(O)C(O)C2O)=C(NC(C)=O)CN1C (configuration not stated) | > 100 µM (inactive) | > 100 µM (inactive) | > 100 µM (inactive) | > 100 µM (inactive) | > 100 µM (inactive) | > 100 µM (inactive) | > 100 | > 100 µM (inactive) | > 100 µM (inactive) | > 100 µM (inactive) | > 100 µM (inactive) | > 100 µM (inactive) | > 100 µM (inactive) | > 100 µM (inactive) | > 100 µM (inactive) | > 100 µM (inactive) | – | – | > 100 µM (inactive) | > 100 µM (inactive)
7 | O=C(/C=C/c1ccc2c(c1)OCO2)c1ccccc(=O)c1O | 19.9 µM (inactive) | 7.73 µM (inactive) | 8.24 µM (inactive) | 23.3 µM (inactive) | 6.84 µM (inactive) | 9.51 µM (inactive) | 3.85 | – | 3.42 µM (inactive) | 4.3 µM (inactive) | 17.3 µM (inactive) | 7.8 µM (inactive) | 9.62 µM (inactive) | 7.14 µM (inactive) | 29.9 µM (inactive) | 37.9 µM (inactive) | 21.5 µM (inactive) | 17.9 µM (inactive) | – | 12.3 µM (inactive)
8 | C=C1CC(C)(COc2ccc3c(C)cc(=O)oc3c2)OC1=O (configuration not stated) | 1.59 µM (inactive) | 1.69 µM (inactive) | 2.08 µM (inactive) | 1.29 µM (inactive) | 0.313 µM (active) | 1.03 µM (active) | 1.47 | 4.22 µM (inactive) | 4.41 µM (inactive) | 3.17 µM (inactive) | 2.36 µM (inactive) | 3.56 µM (inactive) | 0.276 µM (active) | 0.414 µM (active) | – | 3.92 µM (inactive) | 2.39 µM (inactive) | 1.25 µM (inactive) | 0.706 µM (active) | 5.42 µM (inactive)
9 | CC1CCC/C1=C(/I)C(=O)c1ccccc1 (configuration not stated) | 9.16 µM (inactive) | 86.7 µM (inactive) | > 100 µM (inactive) | 64.4 µM (inactive) | 34.4 µM (inactive) | 48 µM (inactive) | > 100 | 18.5 µM (inactive) | > 100 µM (inactive) | > 100 µM (inactive) | > 100 µM (inactive) | > 100 µM (inactive) | 41.7 µM (inactive) | 55.3 µM (inactive) | – | 40.2 µM (inactive) | > 100 µM (inactive) | 89.9 µM (inactive) | – | 16.1 µM (inactive)
10 | CC1(C)CC(=O)c2c(nc3c(ccc4ccccc43)c2-c2ccc(NC(=O)CCCCC(=O)Nc3ccc(-c4c5c(nc6c4ccc4ccccc46)CC(C)(C)CC5=O)cc3)cc2)C1 | 17.6 µM (inactive) | – | 24 µM (inactive) | – | 30.8 µM (inactive) | 22.5 µM (inactive) | 27.7 | 30.9 µM (inactive) | 28.2 µM (inactive) | 26.1 µM (inactive) | 36.1 µM (inactive) | 32.1 µM (inactive) | 29.5 µM (inactive) | 18.8 µM (inactive) | – | 19.3 µM (inactive) | 27.4 µM (inactive) | 39.2 µM (inactive) | 32.2 µM (inactive) | 16.3 µM (inactive)
11 | COCO[C@@H]1C[C@H]2C(=O)N(COC)c3ccccc3C(=O)N2C1 | > 100 µM (inactive) | > 100 µM (inactive) | > 100 µM (inactive) | > 100 µM (inactive) | – | > 100 µM (inactive) | > 100 | > 100 µM (inactive) | > 100 µM (inactive) | > 100 µM (inactive) | > 100 µM (inactive) | > 100 µM (inactive) | > 100 µM (inactive) | – | > 100 µM (inactive) | > 100 µM (inactive) | > 100 µM (inactive) | > 100 µM (inactive) | > 100 µM (inactive) | > 100 µM (inactive)
12 | O[C@H]1[C@H](O)[C@@H](O)[C@@]2(O)CC[C@@H]1N2 | > 100 µM (inactive) | > 100 µM (inactive) | > 100 µM (inactive) | > 100 µM (inactive) | > 100 µM (inactive) | > 100 µM (inactive) | > 100 | > 100 µM (inactive) | > 100 µM (inactive) | > 100 µM (inactive) | > 100 µM (inactive) | > 100 µM (inactive) | > 100 µM (inactive) | – | > 100 µM (inactive) | > 100 µM (inactive) | > 100 µM (inactive) | > 100 µM (inactive) | > 100 µM (inactive) | > 100 µM (inactive)
13 | O=[N+]([O-])c1ccc(OP(=O)(O)OCC2OC(CP(=O)(O)O)C(O)C2O)cc1 (configuration not stated) | > 100 µM (inactive) | > 100 µM (inactive) | > 100 µM (inactive) | – | > 100 µM (inactive) | > 100 µM (inactive) | > 100 | > 100 µM (inactive) | > 100 µM (inactive) | > 100 µM (inactive) | > 100 µM (inactive) | > 100 µM (inactive) | > 100 µM (inactive) | – | > 100 µM (inactive) | > 100 µM (inactive) | > 100 µM (inactive) | > 100 µM (inactive) | > 100 µM (inactive) | –
14 | Cc1nc2cc(F)c(F)cc2[nH]c1=O | > 100 µM (inactive) | > 100 µM (inactive) | > 100 µM (inactive) | > 100 µM (inactive) | > 100 µM (inactive) | > 100 µM (inactive) | > 100 | > 100 µM (inactive) | > 100 µM (inactive) | > 100 µM (inactive) | > 100 µM (inactive) | 77.6 µM (inactive) | – | > 100 µM (inactive) | – | > 100 µM (inactive) | > 100 µM (inactive) | > 100 µM (inactive) | > 100 µM (inactive) | > 100 µM (inactive)
15 | O=C1CCCc2c1c1c(n2Cc2ccccc2)-c2ccccc2C1=O | 17.9 µM (inactive) | 17.9 µM (inactive) | 16 µM (inactive) | 15.3 µM (inactive) | 13.9 µM (inactive) | 31.1 µM (inactive) | 15 | 32.1 µM (inactive) | 22.2 µM (inactive) | 16.4 µM (inactive) | 28.9 µM (inactive) | 28.7 µM (inactive) | 12.3 µM (inactive) | 3.14 µM (inactive) | – | 15.4 µM (inactive) | 27.4 µM (inactive) | 17.3 µM (inactive) | 29 µM (inactive) | 62.5 µM (inactive)
16 | O=C(CCCn1ccnc1[N+](=O)[O-])NCCn1ccnc1 | – | > 100 µM (inactive) | > 100 µM (inactive) | > 100 µM (inactive) | > 100 µM (inactive) | > 100 µM (inactive) | > 100 | > 100 µM (inactive) | > 100 µM (inactive) | > 100 µM (inactive) | > 100 µM (inactive) | > 100 µM (inactive) | > 100 µM (inactive) | – | > 100 µM (inactive) | > 100 µM (inactive) | > 100 µM (inactive) | > 100 µM (inactive) | > 100 µM (inactive) | > 100 µM (inactive)
